The values below come from the kinase profiling compilation of Christmann-Franck et al. (2016).

Common to all, as to test: Free Choice Kinase Assay Projects, Flashplate
Test [1] concerns the target CSNK2A1 (human) (UniProt P68400). To be noted: compound 10.0 µM; ATP 0.1 µM.
Test [2] deals with EGFR (human) (UniProt P00533). To be noted: compound 10.0 µM; ATP 0.3 µM.
Test [3] has as its target PDGFRB (human) (UniProt P09619). Particulars: compound 10.0 µM; ATP 0.3 µM.
For test [4], the target named is EPHB4 (human) (UniProt P54760). To be noted: compound 10.0 µM; ATP 1 µM.
In test [5] the target is AURKA (human) (UniProt O14965). Particulars: compound 10.0 µM; ATP 10 µM.
Chain of AURKA (human) (O14965 whole entry, looked up): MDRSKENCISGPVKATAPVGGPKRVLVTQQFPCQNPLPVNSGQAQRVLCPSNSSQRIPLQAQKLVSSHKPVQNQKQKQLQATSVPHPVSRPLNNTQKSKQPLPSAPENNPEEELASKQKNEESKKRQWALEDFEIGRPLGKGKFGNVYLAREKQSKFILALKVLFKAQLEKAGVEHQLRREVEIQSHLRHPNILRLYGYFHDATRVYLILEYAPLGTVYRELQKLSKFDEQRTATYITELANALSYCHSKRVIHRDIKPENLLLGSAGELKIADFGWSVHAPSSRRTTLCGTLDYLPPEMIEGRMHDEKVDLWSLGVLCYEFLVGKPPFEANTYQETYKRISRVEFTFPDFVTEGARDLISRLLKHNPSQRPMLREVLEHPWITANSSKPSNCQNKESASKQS
For test [6], the target named is MAPK14 (human) (UniProt Q16539). To be noted: compound 10.0 µM; ATP 1 µM.
Chain of MAPK14 (human) (Q16539 whole entry, looked up): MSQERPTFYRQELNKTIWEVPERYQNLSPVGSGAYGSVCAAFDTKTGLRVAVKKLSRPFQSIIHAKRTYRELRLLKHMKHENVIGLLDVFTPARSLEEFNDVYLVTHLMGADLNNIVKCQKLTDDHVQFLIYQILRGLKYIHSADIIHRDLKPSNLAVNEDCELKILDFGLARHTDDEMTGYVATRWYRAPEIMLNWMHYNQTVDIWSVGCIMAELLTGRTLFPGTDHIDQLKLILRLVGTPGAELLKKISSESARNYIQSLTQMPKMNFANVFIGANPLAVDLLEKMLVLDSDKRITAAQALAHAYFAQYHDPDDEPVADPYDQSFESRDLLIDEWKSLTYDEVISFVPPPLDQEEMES
The target of test [7] is NUAK1 (human) (UniProt O60285). To be noted: compound 10.0 µM; ATP 1 µM.
Test [8] deals with MET (human) (UniProt P08581). Particulars: compound 10.0 µM; ATP 0.3 µM.
For test [9], the target named is KDR (human) (UniProt P35968). To be noted: compound 10.0 µM; ATP 1 µM.
Chain of KDR (human) (P35968 whole entry, looked up): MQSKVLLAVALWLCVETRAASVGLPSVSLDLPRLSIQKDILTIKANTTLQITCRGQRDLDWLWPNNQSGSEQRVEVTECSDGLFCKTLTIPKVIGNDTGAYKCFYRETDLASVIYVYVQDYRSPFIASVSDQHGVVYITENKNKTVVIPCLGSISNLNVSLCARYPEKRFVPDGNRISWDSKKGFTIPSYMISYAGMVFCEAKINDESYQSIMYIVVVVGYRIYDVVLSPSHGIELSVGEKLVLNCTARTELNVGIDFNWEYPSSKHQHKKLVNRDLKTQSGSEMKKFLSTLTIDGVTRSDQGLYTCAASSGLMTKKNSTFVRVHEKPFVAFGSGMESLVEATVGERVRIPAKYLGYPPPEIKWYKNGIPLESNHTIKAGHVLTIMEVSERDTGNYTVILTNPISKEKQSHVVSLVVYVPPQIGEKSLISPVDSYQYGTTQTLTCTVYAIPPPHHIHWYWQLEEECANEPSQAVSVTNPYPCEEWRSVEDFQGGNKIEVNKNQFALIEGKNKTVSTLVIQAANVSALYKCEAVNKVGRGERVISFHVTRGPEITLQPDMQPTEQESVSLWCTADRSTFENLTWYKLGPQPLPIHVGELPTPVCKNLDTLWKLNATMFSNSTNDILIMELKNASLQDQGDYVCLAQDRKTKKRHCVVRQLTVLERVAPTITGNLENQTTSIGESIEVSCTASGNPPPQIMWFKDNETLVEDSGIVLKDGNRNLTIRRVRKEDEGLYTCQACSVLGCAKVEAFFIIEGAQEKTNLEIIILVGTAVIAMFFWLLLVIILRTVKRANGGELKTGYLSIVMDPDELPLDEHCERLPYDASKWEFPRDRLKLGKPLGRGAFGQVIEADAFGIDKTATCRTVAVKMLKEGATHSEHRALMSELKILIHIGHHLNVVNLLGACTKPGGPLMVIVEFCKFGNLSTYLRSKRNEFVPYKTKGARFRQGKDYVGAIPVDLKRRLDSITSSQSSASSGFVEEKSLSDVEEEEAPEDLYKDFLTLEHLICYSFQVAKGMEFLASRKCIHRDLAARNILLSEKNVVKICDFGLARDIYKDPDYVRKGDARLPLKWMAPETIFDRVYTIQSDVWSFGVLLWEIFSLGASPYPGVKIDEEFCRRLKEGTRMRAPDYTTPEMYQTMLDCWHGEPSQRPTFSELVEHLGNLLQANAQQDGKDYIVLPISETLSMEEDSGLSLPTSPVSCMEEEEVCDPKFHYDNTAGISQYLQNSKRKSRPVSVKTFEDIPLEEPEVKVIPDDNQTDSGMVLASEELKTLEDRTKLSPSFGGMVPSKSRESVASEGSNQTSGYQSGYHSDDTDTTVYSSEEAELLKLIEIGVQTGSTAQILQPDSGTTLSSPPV
Test [10] addresses CDK4 CCND1 (human) (UniProt P11802+P24385). To be noted: compound 10.0 µM; ATP 3 µM.
Test [11] deals with TEK (human) (UniProt Q02763). Particulars: compound 10.0 µM; ATP 1 µM.
Test [12] has as its target AKT1 (human) (UniProt P31749). To be noted: compound 10.0 µM; ATP 3 µM.
Test [13] has as its target PLK4 (human) (UniProt O00444). To be noted: compound 10.0 µM; ATP 0.3 µM.
Test [14] concerns the target AURKB (human) (UniProt Q96GD4). Particulars: compound 10.0 µM; ATP 10 µM.
Test [15] concerns the target CDK2 CCNA2 (human) (UniProt P24941+P20248). To be noted: compound 10.0 µM; ATP 0.3 µM.
The target of test [16] is MAP3K8 (human) (UniProt P41279). To be noted: compound 10.0 µM; ATP 3 µM.
Test [17] concerns the target AXL (human) (UniProt P30530). To be noted: compound 10.0 µM; ATP 0.3 µM.
Test [18] has as its target IGF1R (human) (UniProt P08069). To be noted: compound 10.0 µM; ATP 1 µM.
Test [19] has as its target ERBB2 (human) (UniProt P04626). Particulars: compound 10.0 µM; ATP 1 µM.
For test [20], the target named is PTK2 (human) (UniProt Q05397). Particulars: compound 10.0 µM; ATP 1 µM.
Test [21] addresses PLK1 (human) (UniProt P53350). To be noted: compound 10.0 µM; ATP 1 µM.
For test [22], the target named is SRC (human) (UniProt P12931). To be noted: compound 10.0 µM; ATP 0.3 µM.
Test [23] addresses MAPK10 (human) (UniProt P53779). To be noted: compound 10.0 µM; ATP 0.3 µM.

Chain of AURKB (human) (Q96GD4 whole entry, looked up): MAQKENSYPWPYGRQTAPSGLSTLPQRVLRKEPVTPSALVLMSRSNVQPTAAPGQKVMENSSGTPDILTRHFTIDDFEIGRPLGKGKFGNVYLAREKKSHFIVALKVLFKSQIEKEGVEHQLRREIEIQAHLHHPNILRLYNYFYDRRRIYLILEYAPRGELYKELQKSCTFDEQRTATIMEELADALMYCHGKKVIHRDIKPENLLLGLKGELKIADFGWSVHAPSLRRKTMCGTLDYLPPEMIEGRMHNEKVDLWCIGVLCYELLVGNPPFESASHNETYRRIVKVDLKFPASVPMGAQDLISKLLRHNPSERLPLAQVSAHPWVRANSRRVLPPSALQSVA
Chain of CDK4 CCND1 (human) (P11802 whole entry, looked up): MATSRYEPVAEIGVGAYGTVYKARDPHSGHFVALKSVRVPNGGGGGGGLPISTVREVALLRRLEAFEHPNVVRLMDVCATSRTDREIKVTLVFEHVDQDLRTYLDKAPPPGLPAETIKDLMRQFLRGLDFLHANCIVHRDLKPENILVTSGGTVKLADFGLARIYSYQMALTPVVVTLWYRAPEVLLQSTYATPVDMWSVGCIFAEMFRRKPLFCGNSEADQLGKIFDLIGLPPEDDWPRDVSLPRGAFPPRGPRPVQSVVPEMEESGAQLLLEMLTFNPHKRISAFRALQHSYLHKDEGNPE
Chain of CDK4 CCND1 (human) (P24385 whole entry, looked up): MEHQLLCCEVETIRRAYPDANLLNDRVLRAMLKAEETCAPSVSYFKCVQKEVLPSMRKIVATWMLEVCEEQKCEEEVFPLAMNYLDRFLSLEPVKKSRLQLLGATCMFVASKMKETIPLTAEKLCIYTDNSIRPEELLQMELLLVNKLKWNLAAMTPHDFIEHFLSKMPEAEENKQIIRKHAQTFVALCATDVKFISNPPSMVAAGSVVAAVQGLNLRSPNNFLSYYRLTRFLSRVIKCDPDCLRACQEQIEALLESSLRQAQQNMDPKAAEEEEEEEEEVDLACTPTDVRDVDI
Chain of CDK2 CCNA2 (human) (P20248 whole entry, looked up, other chains not shown): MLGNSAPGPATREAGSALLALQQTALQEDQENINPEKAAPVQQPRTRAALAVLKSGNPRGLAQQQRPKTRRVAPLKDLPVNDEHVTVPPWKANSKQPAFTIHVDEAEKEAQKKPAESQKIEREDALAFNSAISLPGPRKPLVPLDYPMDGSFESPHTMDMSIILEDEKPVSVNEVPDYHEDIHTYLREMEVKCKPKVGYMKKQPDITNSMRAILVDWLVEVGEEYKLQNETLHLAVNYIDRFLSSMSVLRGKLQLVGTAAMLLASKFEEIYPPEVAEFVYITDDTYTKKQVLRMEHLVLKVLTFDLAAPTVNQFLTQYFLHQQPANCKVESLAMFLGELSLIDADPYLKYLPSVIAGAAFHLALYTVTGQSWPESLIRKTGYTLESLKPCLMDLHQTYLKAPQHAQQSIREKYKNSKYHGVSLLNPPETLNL
Chain of IGF1R (human) (P08069 whole entry, looked up): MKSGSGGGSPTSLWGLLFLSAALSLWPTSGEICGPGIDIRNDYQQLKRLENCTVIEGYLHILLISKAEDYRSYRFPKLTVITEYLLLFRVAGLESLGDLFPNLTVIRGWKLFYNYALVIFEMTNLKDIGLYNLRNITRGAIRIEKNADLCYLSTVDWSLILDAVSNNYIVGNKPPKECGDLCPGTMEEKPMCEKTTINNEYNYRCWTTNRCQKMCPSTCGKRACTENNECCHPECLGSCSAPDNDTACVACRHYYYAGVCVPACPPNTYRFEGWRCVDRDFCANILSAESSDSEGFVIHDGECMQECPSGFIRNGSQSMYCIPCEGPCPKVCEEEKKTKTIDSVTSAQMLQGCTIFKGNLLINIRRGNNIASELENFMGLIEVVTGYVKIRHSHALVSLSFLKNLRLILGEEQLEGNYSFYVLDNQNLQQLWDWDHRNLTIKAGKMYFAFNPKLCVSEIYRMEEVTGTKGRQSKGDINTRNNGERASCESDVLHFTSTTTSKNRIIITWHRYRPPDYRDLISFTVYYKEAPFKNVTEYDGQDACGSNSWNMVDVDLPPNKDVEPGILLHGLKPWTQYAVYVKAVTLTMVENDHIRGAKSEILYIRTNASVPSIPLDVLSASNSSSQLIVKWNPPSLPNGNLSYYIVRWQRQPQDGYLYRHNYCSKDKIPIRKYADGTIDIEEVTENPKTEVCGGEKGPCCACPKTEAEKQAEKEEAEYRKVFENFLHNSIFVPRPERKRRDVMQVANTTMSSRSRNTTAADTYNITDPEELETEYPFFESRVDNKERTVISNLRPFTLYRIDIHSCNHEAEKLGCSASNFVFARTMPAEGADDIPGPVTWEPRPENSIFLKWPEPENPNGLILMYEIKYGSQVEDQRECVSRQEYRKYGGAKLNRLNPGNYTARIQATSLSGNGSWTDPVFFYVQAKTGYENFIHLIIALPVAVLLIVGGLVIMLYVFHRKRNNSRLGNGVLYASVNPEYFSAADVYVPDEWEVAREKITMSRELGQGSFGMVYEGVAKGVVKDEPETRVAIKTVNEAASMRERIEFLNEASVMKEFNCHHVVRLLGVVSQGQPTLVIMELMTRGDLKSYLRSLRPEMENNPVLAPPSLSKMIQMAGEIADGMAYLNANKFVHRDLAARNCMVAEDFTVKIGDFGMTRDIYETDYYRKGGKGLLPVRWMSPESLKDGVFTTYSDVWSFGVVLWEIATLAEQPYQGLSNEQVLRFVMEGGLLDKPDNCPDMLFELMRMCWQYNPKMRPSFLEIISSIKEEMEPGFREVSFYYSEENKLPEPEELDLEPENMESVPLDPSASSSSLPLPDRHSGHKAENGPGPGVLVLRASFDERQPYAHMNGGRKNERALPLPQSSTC

For orientation: residual activity means the signal under treatment as a percentage of the control signal. Consider `CSc1nc(-c2ccnc(NC(=O)C3CCCC3)c2)c(-c2ccc(F)cc2)n1C`, for which the residual activity in test [1] was found to be 91%; in test [2], 30%; in test [3] it was 65%; in [4] it was 39%; in test [5], 72%; in test [6] it was 3%. Also, the residual activity in test [7] was 100%; in test [8] it was 91%; in test [9], 49%; in [10], 105%; in test [11], 35%; in [12], 100%. The residual activity stood at 46% in [13]; 92% in test [14]; 88% in test [15]; 88% in test [16]; 62% in test [17]; 53% in test [18]. Besides, the residual activity in [19] was found to be 48%; in [20], 80%; in test [21], 107%; in test [22] it was 43%; in test [23], 16%.
With `CSc1ccc(CSc2nc(-c3ccncc3)c(-c3ccc(Br)cc3)[nH]2)cc1`, the residual activity in test [1] was determined as 71%; in [2], 49%; in [3] it was 54%; in test [4] it was 56%; in test [5] it was 78%; in test [6], 11%. The residual activity is 94% in test [7]; 54% in [8]; 51% in [9]; 87% in [10]; 21% in test [11]; 147% in [12]. Besides, the residual activity was found to be 33% in test [13]; 63% in test [14]; 64% in [15]; 79% in test [16]; 85% in test [17]; 33% in test [18]. Also, the residual activity worked out at 31% in test [19]; 122% in test [20]; 94% in [21]; 30% in test [22]; 64% in test [23].
In the case of `CSc1ccccc1CSc1nc(-c2ccncc2)c(-c2ccc(F)cc2)[nH]1`, the residual activity amounted to 83% in [1]; 30% in [2]; 85% in test [3]; 52% in test [4]; 80% in test [5]; 10% in test [6]. Moreover, the residual activity in test [7] is 95%; in test [8], 76%; in [9] it was 51%; in test [10], 89%; in test [11], 48%; in [12] it was 137%. In addition, the residual activity was found to be 59% in test [13]; 79% in test [14]; 66% in test [15]; 85% in [16]; 85% in test [17]; 60% in test [18]. Further, the residual activity in test [19] worked out at 29%; in test [20] it was 98%; in [21], 82%; in [22], 29%; in [23], 58%.
Take `CSc1nc(-c2ccnc(N(C(=O)C3CC3)C(=O)C3CC3)c2)c(-c2ccc(F)cc2)n1C`: the residual activity amounted to 90% in test [1]; 26% in test [2]; 50% in [3]; 21% in test [4]; 56% in test [5]; 4% in test [6]. For the same molecule, the residual activity was found to be 106% in test [7]; 99% in test [8]; 14% in test [9]; 112% in [10]; 24% in [11]; 122% in test [12]. Also, the residual activity worked out at 54% in [13]; 57% in test [14]; 211% in test [15]; 106% in test [16]; 38% in test [17]; 36% in test [18]. Further, the residual activity in test [19] stood at 26%; in test [20] it was 79%; in test [21] it was 118%; in test [22], 19%; in test [23], 18%.
For `Fc1ccc(-c2[nH]c(SCCCc3ccccc3)nc2-c2ccncc2)cc1`, the residual activity in test [1] came to 87%; in test [2], 31%; in test [3] it was 80%; in test [4] it was 55%; in [5], 88%; in test [6], 10%. The residual activity in [7] amounted to 89%; in test [8], 81%; in test [9], 52%; in test [10], 99%; in test [11] it was 65%; in [12], 98%. For the same molecule, the residual activity in test [13] came out at 74%; in [14], 88%; in test [15], 54%; in test [16] it was 85%; in test [17], 71%; in test [18] it was 49%. Moreover, the residual activity in [19] came out at 30%; in test [20], 99%; in [21] it was 92%; in [22], 33%; in [23] it was 56%.
On to `Fc1ccc(-c2[nH]c(SCc3ccccc3)nc2-c2ccnc(Cl)c2)cc1`, for which the residual activity in test [1] was 95%; in [2] it was 7%; in test [3] it was 44%; in [4] it was 42%; in [5], 62%; in test [6] it was 9%. Moreover, the residual activity is 71% in [7]; 53% in [8]; 38% in test [9]; 48% in [10]; 16% in test [11]; 75% in test [12]. In addition, the residual activity in [13] was 24%; in test [14], 47%; in [15] it was 43%; in test [16], 58%; in test [17], 62%; in test [18], 42%. The residual activity turned out to be 9% in [19]; 120% in test [20]; 60% in test [21]; 17% in test [22]; 57% in test [23].
For the molecule `Fc1ccc(-c2[nH]c(SCc3ccccc3)nc2-c2ccncc2)cc1`, the residual activity was determined as 94% in [1]; 19% in test [2]; 76% in test [3]; 49% in [4]; 79% in test [5]; 3% in test [6]. Also, the residual activity was 93% in test [7]; 89% in test [8]; 58% in [9]; 101% in [10]; 50% in test [11]; 110% in test [12]. Moreover, the residual activity in test [13] is 71%; in [14], 80%; in test [15], 77%; in test [16] it was 76%; in [17], 82%; in [18], 72%. Moreover, the residual activity came to 23% in [19]; 86% in test [20]; 94% in test [21]; 42% in [22]; 41% in test [23].
